Assay results reported in patent publication US20190124918A1, “BIOFILM FORMATION INHIBITOR AND BIOFILM FORMATION INHIBITING COMPOSITION” (KAO CORPORATION, priority 2016, published 2019).

What was measured:
[1] = test system: Pseudomonas PAO1 strain (ATCC 15692); assay: Growth of test microbe (turbidity OD600), 96-well microplate culture; assay type: cell-based; settings: for inhibition at 101 ppm / inhibition at 203 ppm / inhibition at 405 ppm / inhibition at 608 ppm / inhibition at 709 ppm / inhibition at 810 ppm / Growth inhibition (%): Test Example 3; for inhibition at 101 ppm: final concentration 101 ppm; for inhibition at 203 ppm: final concentration 203 ppm; for inhibition at 405 ppm: final concentration 405 ppm; for inhibition at 608 ppm: final concentration 608 ppm; for inhibition at 709 ppm: final concentration 709 ppm; for inhibition at 810 ppm: final concentration 810 ppm; for inhibition at 18 ppm: final concentration 18 ppm
Protocol: (§1) Pseudomonas PAO1 strain (ATCC 15692) was subjected to stationary culture performed in LB culture medium (Lysogeny Broth; manufactured by Becton Dickinson) at 37° C. for 24 hours. The turbidity (OD600) of the culture solution was measured. The culture solution was diluted with Mueller Hinton Broth (BBL made) to prepare a suspension (15 mL) having a turbidity (OD600) of 1/10^6.
To each of the wells of a 96-well microplate (351172; manufactured by Japan Becton Dickinson), 6 μL of DMSO (Tokyo Chemical Industry Co. Ltd) and an ethanol solution (1 μL, 3 μL or 5 μL) of a test compound were added. After that, the microplate was allowed to stand still at room temperature for 5 hours to evaporate ethanol. The suspension of Pseudomonas microbe prepared in the above step 1) was added in an amount of 145 μL per well and culture was initiated. As the test compound, 2-methylhydroquinone (Sigma Aldrich) and p-toluquinone (Tokyo Kasei) were used. As a reference compound, sodium hypochlorite (manufactured by Wako Pure Chemical Industries Ltd.) was used. As a control, an ethanol solvent (EtOH control) alone was used. The concentration of the test compound in the ethanol solution is 1,000 ppm or 10,000 ppm and the final concentration of the test compound in the culture solution was about from 7 to 333 ppm.
(§2) After the 96-well microplate was subjected to stationary culture performed at 30° C. for 24 hours, turbidity (OD600) was measured to check growth. Subsequently, individual wells were stained with 0.1% crystal violet and thoroughly washed twice with physiological saline. To each well, 200 μL of ethanol was added and the absorbance (OD570) was measured to obtain the amount of the biofilm formed.
Compounds listed in Table 3 were each added to a test microbe and culture was conducted by the same procedure as in Test Example 1 and the amount of growth (OD600) and the amount of biofilm formed (OD570) were measured. For compounds a, b, c, f, h, i, J and k, 20 mM ethanol solutions were prepared; whereas for compounds d, e, g, 5 mM ethanol solutions were prepared. The solutions were each added to a 96-well microplate in an amount of 1 to 8 μL and evaluation was made. The final concentrations of the individual compounds are described in Table 3.
(§3) Growth inhibition rates relative to the control (ethanol alone) were calculated based on OD600 values measured and in accordance with the following expression. In addition, biofilm (BF) formation inhibition rates relative to the control (ethanol alone) were calculated based on OD570 values and in accordance with the following expression:
Growth inhibition (%)=(1−(compound addition group OD600/control group OD600))×100
(§4) As a control, an ethanol solvent alone was used (EtOH control). The concentrations of test compounds in the ethanol solution were as follows: test compound 1: 20 mM, test compounds 2 to 7: 100 mM. To each of the wells of a 96-well microplate (351172; manufactured by Japan Becton Dickinson), 6 μL of DMSO (Tokyo Kasei) and an ethanol solution of each test compound (1 to 8 μL) were added and then the microplates were allowed to stand still at room temperature for 5 hours to evaporate ethanol. A suspension solution of a Pseudomonas microbe prepared in the same procedure as in Test Example 1, 1) was added in an amount of 145 μL per well and culture was initiated.
as §2, with “culture” for “culture performed”, “formed. The growth inhibition rate and biofilm (BF) formation inhibition rate were calculated based on OD600 and OD570 values measured and in accordance with the expressions used in Test Example 2.” for “formed.”

[2] = test system: Pseudomonas PAO1 strain (ATCC 15692); assay: Amount of biofilm formed (crystal violet, OD570), 96-well microplate culture; assay type: cell-based; settings: for inhibition at 101 ppm / inhibition at 203 ppm / inhibition at 405 ppm / inhibition at 608 ppm / inhibition at 709 ppm / inhibition at 810 ppm / BF inhibition (%): Test Example 3; for inhibition at 101 ppm: final concentration 101 ppm; for inhibition at 203 ppm: final concentration 203 ppm; for inhibition at 405 ppm: final concentration 405 ppm; for inhibition at 608 ppm: final concentration 608 ppm; for inhibition at 709 ppm: final concentration 709 ppm; for inhibition at 810 ppm: final concentration 810 ppm; for inhibition at 18 ppm: final concentration 18 ppm
Protocol: as §1, with “1/10^6. […]” for “1/10^6.”
as §3
BF inhibition (%)={1−(compound addition group OD570/control group OD570)}×100
as §4
as §2, with “culture” for “culture performed”, “formed. The growth inhibition rate and biofilm (BF) formation inhibition rate were calculated based on OD600 and OD570 values measured and in accordance with the expressions used in Test Example 2.” for “formed.”

[3] = Pseudomonas, read-out: BF inhibition (%)
[4] = Pseudomonas, read-out: Growth inhibition (%)

CCCc1c(O)cccc1O [Compound 4, 2-Propylresorcinol]
inhibition at 101 ppm ([1]; Pseudomonas): < 0%
inhibition at 203 ppm ([1]; Pseudomonas): 20.5%
inhibition at 405 ppm ([1]; Pseudomonas): < 0%
inhibition at 608 ppm ([1]; Pseudomonas): 6.8%
inhibition at 709 ppm ([1]; Pseudomonas): 16.4%
inhibition at 810 ppm ([1]; Pseudomonas): < 0%
inhibition at 101 ppm [2, 3]: < 0%
inhibition at 203 ppm [2, 3]: < 0%
inhibition at 405 ppm [2, 3]: < 0%
inhibition at 608 ppm [2, 3]: 7.9%
inhibition at 709 ppm [2, 3]: 21.7%
inhibition at 810 ppm [2, 3]: 14.1%

Cc1cc(O)c(C)c(O)c1 [Compound 5, 2,5-Dimethylresorcinol]
inhibition at 92 ppm [1, 4]: < 0%
inhibition at 184 ppm [1, 4]: < 0%
inhibition at 368 ppm [1, 4]: < 0%
inhibition at 552 ppm [1, 4]: 9.3%
inhibition at 644 ppm [1, 4]: 14%
inhibition at 736 ppm [1, 4]: 11.1%
inhibition at 92 ppm [2, 3]: < 0%
inhibition at 184 ppm [2, 3]: 0.4%
inhibition at 368 ppm [2, 3]: < 0%
inhibition at 552 ppm [2, 3]: 10.4%
inhibition at 644 ppm [2, 3]: 20.4%
inhibition at 736 ppm [2, 3]: 55%

CC1=CC(=O)C=C(C)C1=O [i, 3,5-Dimethylbenzoquinone]
inhibition at 18 ppm ([1]; Pseudomonas): 5.3%
inhibition at 36 ppm ([1]; Pseudomonas, final concentration 36 ppm): < 0%
inhibition at 72 ppm ([1]; Pseudomonas, final concentration 72 ppm): 29.7%
inhibition at 109 ppm ([1]; Pseudomonas, final concentration 109 ppm): 33.5%
inhibition at 127 ppm ([1]; Pseudomonas, final concentration 127 ppm): 33.7%
inhibition at 145 ppm ([1]; Pseudomonas, final concentration 145 ppm): 37.7%
inhibition at 18 ppm [2, 3]: 17.2%
inhibition at 36 ppm ([2]; Pseudomonas, final concentration 36 ppm, read-out: BF inhibition (%)): 26.2%
inhibition at 72 ppm ([2]; Pseudomonas, final concentration 72 ppm, read-out: BF inhibition (%)): 29.4%
inhibition at 109 ppm ([2]; Pseudomonas, final concentration 109 ppm, read-out: BF inhibition (%)): 54%
inhibition at 127 ppm ([2]; Pseudomonas, final concentration 127 ppm, read-out: BF inhibition (%)): 60.9%
inhibition at 145 ppm ([2]; Pseudomonas, final concentration 145 ppm, read-out: BF inhibition (%)): 55.8%

CCCCCc1cc(O)cc(O)c1 [Compound 3, 5-Pentylresorcinol]
inhibition at 120 ppm [1, 4]: 7.7%
inhibition at 240 ppm [1, 4]: < 0%
inhibition at 480 ppm [1, 4]: < 0%
inhibition at 720 ppm [1, 4]: < 0%
inhibition at 840 ppm [1, 4]: 17%
inhibition at 960 ppm [1, 4]: 4.9%
inhibition at 120 ppm [2, 3]: 0.9%
inhibition at 240 ppm [2, 3]: < 0%
inhibition at 480 ppm [2, 3]: 50.6%
inhibition at 720 ppm [2, 3]: 42.3%
inhibition at 840 ppm [2, 3]: 85%
inhibition at 960 ppm [2, 3]: 86.1%

OCl [Sodium hypochlorite, sodium hypochlorite, reference compound]
microbial growth (in words) ([1]; Test Example 1, 7 to 333 ppm): inhibited
Growth OD600 ([1]; final concentration 7 ppm, EtOH control 0.5913): 0.5938
Growth OD600 ([1]; final concentration 20 ppm, EtOH control 0.6346): 0.4966
Growth OD600 ([1]; final concentration 33 ppm, EtOH control 0.668): 0.4445
Growth OD600 ([1]; final concentration 67 ppm, EtOH control 0.628): 0.4585
Growth OD600 ([1]; final concentration 200 ppm, EtOH control 0.6045): 0.3016
Growth OD600 ([1]; final concentration 333 ppm, EtOH control 0.6088): 0.2758
biofilm formation (in words) ([2]; Test Example 1, 7 to 333 ppm): inhibited
The amount of the biofilm formed OD570 ([2]; final concentration 7 ppm, EtOH control 0.9163): 0.9918
The amount of the biofilm formed OD570 ([2]; final concentration 20 ppm, EtOH control 0.9564): 0.9042
The amount of the biofilm formed OD570 ([2]; final concentration 33 ppm, EtOH control 0.8974): 0.7879
The amount of the biofilm formed OD570 ([2]; final concentration 67 ppm, EtOH control 0.8853): 0.7277
The amount of the biofilm formed OD570 ([2]; final concentration 200 ppm, EtOH control 0.9248): 0.7579
The amount of the biofilm formed OD570 ([2]; final concentration 333 ppm, EtOH control 0.9562): 0.4967

CC(C)c1ccc(O)cc1O [Compound 7, 4-Isopropylresorcinol]
inhibition at 101 ppm ([1]; Pseudomonas): < 0%
inhibition at 203 ppm ([1]; Pseudomonas): 5.7%
inhibition at 405 ppm ([1]; Pseudomonas): < 0%
inhibition at 608 ppm ([1]; Pseudomonas): 4.8%
inhibition at 709 ppm ([1]; Pseudomonas): 19.5%
inhibition at 810 ppm ([1]; Pseudomonas): 40.2%
inhibition at 101 ppm [2, 3]: < 0%
inhibition at 203 ppm [2, 3]: < 0%
inhibition at 405 ppm [2, 3]: < 0%
inhibition at 608 ppm [2, 3]: 29.1%
inhibition at 709 ppm [2, 3]: 29.3%
inhibition at 810 ppm [2, 3]: 21%

CCc1cc(O)ccc1O [f, Ethylquinol]
inhibition at 18 ppm ([1]; Pseudomonas): 2.1%
inhibition at 37 ppm ([1]; Pseudomonas, final concentration 37 ppm): 5.5%
inhibition at 74 ppm ([1]; Pseudomonas, final concentration 74 ppm): < 0%
inhibition at 110 ppm ([1]; Pseudomonas, final concentration 110 ppm): < 0%
inhibition at 129 ppm ([1]; Pseudomonas, final concentration 129 ppm): < 0%
inhibition at 147 ppm ([1]; Pseudomonas, final concentration 147 ppm): < 0%
inhibition at 18 ppm [2, 3]: 18.6%
inhibition at 37 ppm ([2]; Pseudomonas, final concentration 37 ppm, read-out: BF inhibition (%)): 31.1%
inhibition at 74 ppm ([2]; Pseudomonas, final concentration 74 ppm, read-out: BF inhibition (%)): 40.6%
inhibition at 110 ppm ([2]; Pseudomonas, final concentration 110 ppm, read-out: BF inhibition (%)): 50.8%
inhibition at 129 ppm ([2]; Pseudomonas, final concentration 129 ppm, read-out: BF inhibition (%)): 75.4%
inhibition at 147 ppm ([2]; Pseudomonas, final concentration 147 ppm, read-out: BF inhibition (%)): 78.9%

Cc1cc(O)cc(O)c1 [Compound 2, 5-Methylresocinol]
Growth inhibition (%) ([1]; final concentration 83 ppm): — (No growth inhibition or no BF inhibition)
Growth inhibition (%) ([1]; final concentration 165 ppm): 10.4%
Growth inhibition (%) ([1]; final concentration 331 ppm): — (No growth inhibition or no BF inhibition)
Growth inhibition (%) ([1]; final concentration 496 ppm): — (No growth inhibition or no BF inhibition)
Growth inhibition (%) ([1]; final concentration 579 ppm): 17.6%
Growth inhibition (%) ([1]; final concentration 661 ppm): — (No growth inhibition or no BF inhibition)
BF inhibition (%) ([2]; final concentration 83 ppm): — (No growth inhibition or no BF inhibition)
BF inhibition (%) ([2]; final concentration 165 ppm): — (No growth inhibition or no BF inhibition)
BF inhibition (%) ([2]; final concentration 331 ppm): — (No growth inhibition or no BF inhibition)
BF inhibition (%) ([2]; final concentration 496 ppm): 57.5%
BF inhibition (%) ([2]; final concentration 579 ppm): 57.7%
BF inhibition (%) ([2]; final concentration 661 ppm): 70.2%

Cc1cc(O)c(C)c(C)c1O [g, 2,3,5-Trimethylhydroquinone]
inhibition at 5 ppm ([1]; Pseudomonas, final concentration 5 ppm): < 0%
inhibition at 10 ppm ([1]; Pseudomonas, final concentration 10 ppm): < 0%
inhibition at 20 ppm ([1]; Pseudomonas, final concentration 20 ppm): 0.1%
inhibition at 30 ppm ([1]; Pseudomonas, final concentration 30 ppm): 65.8%
inhibition at 35 ppm ([1]; Pseudomonas, final concentration 35 ppm): 67.5%
inhibition at 41 ppm ([1]; Pseudomonas, final concentration 41 ppm): 68.5%
inhibition at 5 ppm ([2]; Pseudomonas, final concentration 5 ppm, read-out: BF inhibition (%)): 45.5%
inhibition at 10 ppm ([2]; Pseudomonas, final concentration 10 ppm, read-out: BF inhibition (%)): 42.2%
inhibition at 20 ppm ([2]; Pseudomonas, final concentration 20 ppm, read-out: BF inhibition (%)): 48%
inhibition at 30 ppm ([2]; Pseudomonas, final concentration 30 ppm, read-out: BF inhibition (%)): 54.7%
inhibition at 35 ppm ([2]; Pseudomonas, final concentration 35 ppm, read-out: BF inhibition (%)): 93.9%
inhibition at 41 ppm ([2]; Pseudomonas, final concentration 41 ppm, read-out: BF inhibition (%)): 90.4%
